According to patent US20240417411A1, “COMPOUNDS AND METHODS FOR TREATMENT OF VIRAL INFECTIONS” (priority 2023, published 2024):

How the values were obtained:
SARS-CoV2-NLuc = assay: microbe, parasite or virus in culture; format: cell-based, SARS Coronavirus 2; conditions: Severe acute respiratory syndrome coronavirus 2, 48 h, read-out: SARS-CoV2 EC50 (nM)
RSV-Luc5 = assay: microbe, parasite or virus in culture; format: cell-based; conditions: human respiratory syncytial virus, NHBE, 72 h, read-out: RSV NHBE EC50 (nM)
in vitro [1] = format: cell-based; conditions: human
Description: Example C: CC50 MT4 Cytotoxicity of the compounds was determined in uninfected cells using the cell viability reagent in a similar fashion as described before for other cell types ([…] et al., Antimicrob Agents Chemother. 2008,52(2):655-65). […] Cells were cultured for 4-5 days at 37° C. Following the incubation, the cells were allowed to equilibrate to 25° C., and cell viability was determined by adding Cell-Titer Glo viability reagent. The mixture was incubated for 10 min, and the luminescence signal was quantified using an Envision plate reader. Untreated cell and cells treated at 2 μM puromycin (Sigma, St. Louis, MO) serve as 100% and 0% cell viability control, respectively. The percent of cell viability was calculated for each tested compound concentration relative to the 0% and 100% controls and the CC50 value was determined by non-linear regression as a compound concentration reducing the cell viability by 50%.

in vitro [2] = format: in vitro ADME; conditions: human, s9, pH 7.4
Description: Example D: GI S9 Stability […] The S9 metabolic reactions were initiated by the addition of the substrates to the S9 reaction mixture to a final concentration of 2 μM. […] Aliquots ([…]) of the diluted supernatant were analyzed on a Thermo Q-Exactive mass spectrometer as described below. Example F: Liquid Chromatography/Mass Spectroscopy Methods for S9 and Plasma Stability Quantification of test compounds, Reference Compound A (S9 stability assay nucleoside metabolite), and controls was performed by analyte/internal standard peak area ratio (PAR) values measured on a Thermo Q-Exactive mass spectrometer coupled to a Dionex UltiMate 3000 HPLC with a Leap Technologies HTC PAL autosampler. […] Mobile phase A consisted of 0.1% (v/v) formic acid in water. Mobile phase B consisted of 0.1% (v/v) formic acid in acetonitrile. Elution of analytes was achieved by a series of linear gradients of acetonitrile in water containing 0.10% (v/v) formic acid. The mass spectrometer was calibrated on a weekly basis and mass tolerance of 5 ppm was used.

in vitro [3] = conditions: human, plasma
[4] = test system: Caco-2 cells (clone C2BBe1); conditions: human, Caco-2

Row | Structure (SMILES) | EC50 (SARS-CoV2-NLuc) [nM] | EC50 (RSV-Luc5) [nM] | CC50 (in vitro [1]) [µM] | half-life at 2 μM (in vitro [2]) [min] | half-life at 2 μM (in vitro [3]) [min] | Caco2 A to B [4] | Caco2 B to A [4]
1 | COC(=O)OC[C@H]1O[C@@](C#N)(c2ccc3c(N)ncnn23)[C@@H]2OC(=O)CC(C)(C)CC(=O)O[C@@H]21 [Compound C15, ((7aR,8R,10R,10aR)-10-(4-aminopyrrolo[2,1-f][1,2,4]triazin-7-yl)-10-cyano-4,4-dimethyl-2,6-dioxooctahydro-2H-furo[3,4-b][1,4]dioxonin-8-yl)methyl methyl carbonate] | > 50000 | > 50000 | > 50 | 6.22 | 16.1 |  | 
2 | N#C[C@@]1(c2ccc3c(N)ncnn23)O[C@H](COC(=O)OCCN2CCOCC2)[C@H]2OC(=O)CCCC(=O)O[C@H]21 [Compound C19, ((7aR,8R,10R,10aR)-10-(4-aminopyrrolo[2,1-f][1,2,4]triazin-7-yl)-10-cyano-2,6-dioxooctahydro-2H-furo[3,4-b][1,4]dioxonin-8-yl)methyl (2-morpholinoethyl) carbonate] | 4310 | 8620 | > 50 | 0.552 | 90.3 |  | 
3 | CC(C)(C)COC(=O)OC[C@H]1O[C@@](C#N)(c2ccc3c(N)ncnn23)[C@@H]2OC(=O)CCCC(=O)O[C@@H]21 [Compound C29, ((7aR,8R,10R,10aR)-10-(4-aminopyrrolo[2,1-f][1,2,4]triazin-7-yl)-10-cyano-2,6-dioxooctahydro-2H-furo[3,4-b][1,4]dioxonin-8-yl)methyl neopentyl carbonate] | 2220 | 4660 | > 50 | 0.587 | 12.1 |  | 
4 | CC1(C)CC(=O)O[C@H]2[C@@H](OC(=O)C1)[C@](C#N)(c1ccc3c(N)ncnn13)O[C@@H]2COC(=O)OC(CF)CF [Compound C44, ((7aR,8R,10R,10aR)-10-(4-aminopyrrolo[2,1-f][1,2,4]triazin-7-yl)-10-cyano-4,4-dimethyl-2,6-dioxooctahydro-2H-furo[3,4-b][1,4]dioxonin-8-yl)methyl (1,3-difluoropropan-2-yl) carbonate] | > 50000 | > 50000 | > 50 | 1.22 | 133 |  | 
5 | CC(C)COC(=O)OC[C@H]1O[C@@](C#N)(c2ccc3c(N)ncnn23)[C@@H]2OC(=O)CC(C)(C)CC(=O)O[C@@H]21 [Compound C35, ((7aR,8R,10R,10aR)-10-(4-aminopyrrolo[2,1-f][1,2,4]triazin-7-yl)-10-cyano-4,4-dimethyl-2,6-dioxooctahydro-2H-furo[3,4-b][1,4]dioxonin-8-yl)methyl isobutyl carbonate] | > 50000 | > 50000 | > 50 | 0.609 | 73.6 |  | 
6 | CC1(C)CC(=O)O[C@H]2[C@@H](OC(=O)C1)[C@](C#N)(c1ccc3c(N)ncnn13)O[C@@H]2CO [Compound C11, (7aR,8R,10R,10aR)-8-(4-aminopyrrolo[2,1-f][1,2,4]triazin-7-yl)-10-(hydroxymethyl)-4,4-dimethyl-2,6-dioxooctahydro-2H-furo[3,4-b][1,4]dioxonine-8-carbonitrile] | > 50000 | > 50000 | > 50 | 24.3 | 414 |  | 
7 | CC(C)[C@H](N)C(=O)OC[C@H]1O[C@@](C#N)(c2ccc3c(N)ncnn23)[C@@H]2OC(=O)CCCC(=O)O[C@@H]21 [Compound C59, ((7aR,8R,10R,10aR)-10-(4-aminopyrrolo[2,1-f][1,2,4]triazin-7-yl)-10-cyano-2,6-dioxooctahydro-2H-furo[3,4-b][1,4]dioxonin-8-yl)methyl L-valinate] | 6830 | 5970 | > 50 | 0.586 | 18.5 |  | 
8 | CC1(C)CC(=O)O[C@H]2[C@@H](OC(=O)C1)[C@](C#N)(c1ccc3c(N)ncnn13)O[C@@H]2COC(=O)OC1CCCC1 [Compound C37, ((7aR,8R,10R,10aR)-10-(4-aminopyrrolo[2,1-f][1,2,4]triazin-7-yl)-10-cyano-4,4-dimethyl-2,6-dioxooctahydro-2H-furo[3,4-b][1,4]dioxonin-8-yl)methyl cyclopentyl carbonate] | > 50000 | > 50000 | > 50 | 5.15 | 300 |  | 
9 | CCOC(=O)[C@@H]1[C@H](OC(=O)OC[C@H]2O[C@@](C#N)(c3ccc4c(N)ncnn34)[C@@H]3OC(=O)CCCC(=O)O[C@@H]32)CCN1C [Compound C32, ethyl (2S,3R)-3-(((((7aR,8R,10R,10aR)-10-(4-aminopyrrolo[2,1-f][1,2,4]triazin-7-yl)-10-cyano-2,6-dioxooctahydro-2H-furo[3,4-b][1,4]dioxonin-8-yl)methoxy)carbonyl)oxy)-1-methylpyrrolidine-2-carboxylate] | 4970 | 7650 | > 50 | 0.566 | 30.9 |  | 
10 | CC(C)[C@H](NC(=O)OC(C)(C)C)C(=O)OC[C@H]1O[C@@](C#N)(c2ccc3c(N)ncnn23)[C@@H]2OC(=O)CCCC(=O)O[C@@H]21 [Compound C58, ((7aR,8R,10R,10aR)-10-(4-aminopyrrolo[2,1-f][1,2,4]triazin-7-yl)-10-cyano-2,6-dioxooctahydro-2H-furo[3,4-b][1,4]dioxonin-8-yl)methyl (tert-butoxycarbonyl)-L-valinate] | 5120 | 2840 | > 50 | 0.577 | 26.4 |  | 
11 | CCOC(=O)C(C)(C)OC(=O)OC[C@H]1O[C@@](C#N)(c2ccc3c(N)ncnn23)[C@@H]2OC(=O)CCCC(=O)O[C@@H]21 [Compound C26, ethyl 2-(((((7aR,8R,10R,10aR)-10-(4-aminopyrrolo[2,1-f][1,2,4]triazin-7-yl)-10-cyano-2,6-dioxooctahydro-2H-furo[3,4-b][1,4]dioxonin-8-yl)methoxy)carbonyl)oxy)-2-methylpropanoate] | 39900 | > 50000 | > 50 | 0.618 | 18.3 |  | 
12 | CC(C)COC(=O)OC[C@H]1O[C@@](C#N)(c2ccc3c(N)ncnn23)[C@@H]2OC(=O)CCCC(=O)O[C@@H]21 [Compound C18, ((7aR,8R,10R,10aR)-10-(4-aminopyrrolo[2,1-f][1,2,4]triazin-7-yl)-10-cyano-2,6-dioxooctahydro-2H-furo[3,4-b][1,4]dioxonin-8-yl)methyl isobutyl carbonate] | 1780 | 8490 | > 50 | 0.724 | 7.57 |  | 
13 | CC(C)(OC(=O)OC[C@H]1O[C@@](C#N)(c2ccc3c(N)ncnn23)[C@@H]2OC(=O)CCCC(=O)O[C@@H]21)c1ccncc1 [Compound C17, ((7aR,8R,10R,10aR)-10-(4-aminopyrrolo[2,1-f][1,2,4]triazin-7-yl)-10-cyano-2,6-dioxooctahydro-2H-furo[3,4-b][1,4]dioxonin-8-yl)methyl (2-(pyridin-4-yl)propan-2-yl) carbonate] | 29900 | > 50000 | > 50 |  | 31.1 | 2.97 | 15.86
14 | CCOC(=O)[C@@H]1[C@H](OC(=O)OC[C@H]2O[C@@](C#N)(c3ccc4c(N)ncnn34)[C@@H]3OC(=O)CC(C)(C)CC(=O)O[C@@H]32)CCN1C [Compound C49, ethyl (2S,3R)-3-(((((7aR,8R,10R,10aR)-10-(4-aminopyrrolo[2,1-f][1,2,4]triazin-7-yl)-10-cyano-4,4-dimethyl-2,6-dioxooctahydro-2H-furo[3,4-b][1,4]dioxonin-8-yl)methoxy)carbonyl)oxy)-1-methylpyrrolidine-2-carboxylate] | > 50000 | > 50000 | > 50 | 7.81 | 42.5 |  | 
15 | CC(C)(OC(=O)OC[C@H]1O[C@@](C#N)(c2ccc3c(N)ncnn23)[C@@H]2OC(=O)CCCC(=O)O[C@@H]21)C(F)F [Compound C25, ((7aR,8R,10R,10aR)-10-(4-aminopyrrolo[2,1-f][1,2,4]triazin-7-yl)-10-cyano-2,6-dioxooctahydro-2H-furo[3,4-b][1,4]dioxonin-8-yl)methyl (1,1-difluoro-2-methylpropan-2-yl) carbonate] | 34300 | 6460 | > 50 | 0.559 | 11.9 |  | 
